Results from publication PMC8151276, “An Integrated Approach toward NanoBRET Tracers for Analysis of GPCR Ligand Engagement” (Molecules, 2021).
One block for each molecule: values may come before it.

Columns and labels:
Type in all cases: binding
[1] = target: T1, PTGER3 (Homo sapiens, UniProt P43115); experiment: NanoBRET screen HiBiT-PTGER3 in HEK293
T1 construct: purchased Promega (in-house HiBiT-GPCR construct library, NanoBRET)
T1 sequence (P43115 1-390): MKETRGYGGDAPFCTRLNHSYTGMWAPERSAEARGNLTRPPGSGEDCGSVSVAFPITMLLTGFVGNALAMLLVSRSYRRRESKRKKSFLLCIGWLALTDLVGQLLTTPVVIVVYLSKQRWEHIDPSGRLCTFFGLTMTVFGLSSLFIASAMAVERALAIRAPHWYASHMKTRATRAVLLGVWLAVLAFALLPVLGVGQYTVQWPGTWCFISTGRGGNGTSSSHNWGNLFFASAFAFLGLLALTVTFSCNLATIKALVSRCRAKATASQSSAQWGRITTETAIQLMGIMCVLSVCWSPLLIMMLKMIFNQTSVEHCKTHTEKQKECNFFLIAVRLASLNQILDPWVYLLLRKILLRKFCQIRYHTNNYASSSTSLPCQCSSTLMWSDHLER
Protocol: (§1) Each tracer candidate was screened across the entire library of HiBiT-GPCR constructs using NanoBRET as the detection modality. As depicted in Figure 4A, the specificity of interactions was evaluated through decrease in BRET due to competitive displacement of a bound tracer by excess parental compound. Each tracer was analyzed for binding to each HiBiT-GPCR fusion in the absence and in the presence of competing parental compound. Briefly, HEK293 cells were transfected with HiBiT-GPCR constructs diluted into promoterless DNA to reduce expression and maximize translocation to the cell surface. Each tracer candidate was then screened at concentrations of 1 μM and 0.1 μM across cells expressing these fusions. Cells were treated for 1.5 h with tracer either alone or in the presence of 20 μM competing parental compound (i.e., control). BRET was measured upon addition of purified LgBiT and subsequent complementation with HiBiT genetically fused to a GPCR. The specificity of interactions was assessed through a decrease in BRET signal due to competitive displacement of the bound tracer. To further gauge the robustness of these interactions, the fold response over the control (i.e., BRETtracer/BRETcontrol) was calculated. We chose a 1.5-fold response, which translates to ≥7-fold signal over noise as the minimal threshold required to score an interaction as positive. […]. Below we highlight the screening results obtained for our exemplary fluorescent tracers based on Clozapine, Amitriptyline and AZD1283.
(§2) HiBiT-GPCR DNA constructs were diluted in 10 mM Tris pH 8 to a final concentration of 0.01 μg/μL, arrayed in 96-well plates and stored at −20 °C. For transfection, HEK293 cells were suspended in Opti-MEM (without phenol red) supplemented with 2% fetal bovine serum (Seradigm) and 100 units/mL penicillin–streptomycin (Gibco) at a final concentration of 220,000 cells/mL and dispensed into white 96-well plates at 90 μL/well. Subsequent transfections and screens were carried using an Agilent Bravo Automated Liquid Handling Platform. First, the 96-well HiBiT DNA arrays were diluted 25-fold in Opti-MEM (without serum or phenol red) to a final concentration of 0.0004 μg/μL and 20 μL of the diluted DNAs were transferred into new 96-well plates. Next, promoterless carrier DNA (1 μg/μL) was diluted 25-fold (0.04 μg/μL) and then dispensed into the diluted arrays at 20 μL/well. Following brief mixing, Viafect transfection reagent (Promega) diluted 16-fold into Opti-MEM was dispensed into the plates at 40 μL/well. After mixing by pipetting, plates were incubated for 10 min on the pipetting station deck. The DNA-transfection reagent complexes were then added to plates containing cells. To facilitate the screen, 10 μL of DNA-transfection reagent complexes were added in duplicates to the top 4 and bottom 4 rows, resulting in two identical 48-well arrays per plate. Plates with transfected cells were incubated for 18–20 h at 37 °C/5% CO2. A screen of each tracer across the entire library using two different concentrations requires duplicate plates of transfected cells. Depending on the number of tracers being screened, transfections can be scaled up using the same ratios. The next day, for each tracer, four 20× screening solutions in tracer dilution buffer (Promega) were prepared: two duplicates at final concentration of 20 μM and two duplicates at a final concentration of 2 μM. A competing unmodified compound was added to one of each duplicate at a final concentration of 400 μM. The four resulting solutions were diluted 4-fold in Opti-MEM without serum or phenol red to generate 5× solutions (5 µM and 0.5 µM tracer +/− 100 μM competing compound). To screen the library, a BioTek MultiFlo FX liquid dispenser was used to dispense 22.5 µL of tracer solution to the top 4 rows and 22.5 µL tracer + competing compound solution to the 4 bottom rows. Plates were briefly mixed on an orbital shaker and incubated for 1.5 h at room temperature. […]

[2] = target: T2, ADORA2B (Homo sapiens, UniProt P29275); experiment: NanoBRET screen HiBiT-ADORA2B in HEK293
T2 construct: purchased Promega (in-house HiBiT-GPCR construct library, NanoBRET)
T2 sequence (P29275 1-332): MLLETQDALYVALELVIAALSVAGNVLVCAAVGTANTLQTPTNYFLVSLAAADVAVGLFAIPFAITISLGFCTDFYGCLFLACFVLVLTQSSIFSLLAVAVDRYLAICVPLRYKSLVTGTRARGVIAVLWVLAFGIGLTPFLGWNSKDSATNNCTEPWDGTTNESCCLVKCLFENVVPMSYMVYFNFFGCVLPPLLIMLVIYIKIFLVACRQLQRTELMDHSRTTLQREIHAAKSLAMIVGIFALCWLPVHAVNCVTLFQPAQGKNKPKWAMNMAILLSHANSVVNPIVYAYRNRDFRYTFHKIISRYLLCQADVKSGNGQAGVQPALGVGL
Protocol: as §1, §2

[3] = target: T3, ADORA1 (Homo sapiens, UniProt P30542); experiment: NanoBRET screen HiBiT-ADORA1 in HEK293
T3 construct: purchased Promega (in-house HiBiT-GPCR construct library, NanoBRET)
T3 sequence (P30542 1-326): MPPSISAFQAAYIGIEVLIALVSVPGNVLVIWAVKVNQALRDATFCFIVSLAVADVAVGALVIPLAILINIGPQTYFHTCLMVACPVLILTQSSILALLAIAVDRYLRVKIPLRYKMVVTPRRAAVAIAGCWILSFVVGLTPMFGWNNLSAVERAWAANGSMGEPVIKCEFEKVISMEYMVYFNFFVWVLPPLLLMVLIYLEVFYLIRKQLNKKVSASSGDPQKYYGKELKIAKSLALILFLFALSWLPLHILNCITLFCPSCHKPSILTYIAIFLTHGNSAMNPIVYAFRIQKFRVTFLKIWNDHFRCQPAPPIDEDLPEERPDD
Protocol: as §1, §2

SMILES: CN(C)CCC=C1c2ccccc2CCc2ccc(C(=O)NCCNC(=O)CCOCCOCCOCCOCCNC(=O)CCc3ccc4n3[B-](F)(F)[N+]3=C(c5ccc[nH]5)C=CC3=C4)cc21 [Amitriptyline-a-2-NB590]
NanoBRET Fold Response ([2]; tracer at 0.1μM): 1.10 | NanoBRET Fold Response ([2]; tracer at 1μM): 0.93 | NanoBRET Fold Response ([3]; tracer at 0.1μM): 1.11 | NanoBRET Fold Response ([3]; tracer at 1μM): 1.02

SMILES: CN(C)CCC=C1c2ccccc2CCc2ccc(C(=O)NCCNC(=O)CCOCCOCCOCCOCCNC(=O)CCc3ccc4n3[B-](F)(F)[N+]3=C(c5ccc[nH]5)C=CC3=C4)cc21 [Amitriptyline-b-2-NB590]
NanoBRET Fold Response ([1]; tracer at 0.1μM): 0.96 | NanoBRET Fold Response ([1]; tracer at 1μM): 1.01 | NanoBRET Fold Response ([2]; tracer at 0.1μM, listed as amitriptyline-b-2-NB590): 1.40 | NanoBRET Fold Response ([3]; tracer at 1μM, listed as amitriptyline-b-2-NB590): 1.01

SMILES: CN(CCC=C1c2ccccc2CCc2ccccc21)C(=O)CCOCCOCCOCCOCCNC(=O)CCc1ccc2n1[B-](F)(F)[N+]1=C(c3ccc[nH]3)C=CC1=C2 [Amitriptyline-e-2-NB590]
NanoBRET Fold Response ([3]; tracer at 1μM): 1.08

Results, then the molecule that gave them:

NanoBRET Fold Response ([1]; PTGER3, 0.1μM): 1.08 | NanoBRET Fold Response ([1]; PTGER3, 1μM): 1.10 | NanoBRET Fold Response ([2]; ADORA2B, 0.1μM): 0.94 | NanoBRET Fold Response ([2]; ADORA2B, 1μM): 0.93 | NanoBRET Fold Response ([3]; ADORA1, 0.1μM): 1.18 | NanoBRET Fold Response ([3]; ADORA1, 1μM): 1.07
SMILES: CCOC(=O)c1cc(C#N)c(N2CCC(C(=O)NS(=O)(=O)Cc3ccccc3/C=C/C(=O)NCCNC(=O)CCc3ccc4n3[B-](F)(F)[N+]3=C(c5ccc[nH]5)C=CC3=C4)CC2)nc1C [AZD1283-1-NB590]

NanoBRET Fold Response ([1]; PTGER3, tracer 0.1μM): 1.01 | NanoBRET Fold Response ([1]; PTGER3, tracer 1μM): 1.01 | NanoBRET Fold Response ([2]; ADORA2B, tracer 0.1μM): 1.37 | NanoBRET Fold Response ([2]; ADORA2B, tracer 1μM): 1.06 | NanoBRET Fold Response ([3]; ADORA1, tracer 0.1μM): 1.04 | NanoBRET Fold Response ([3]; ADORA1, tracer 1μM): 1.01
SMILES: N#CN=C(NCCCOc1cccc(CN2CCCCC2)c1)NCCNC(=O)CCOCCOCCOCCOCCNC(=O)CCc1ccc2n1[B-](F)(F)[N+]1=C(c3ccc[nH]3)C=CC1=C2 [Aminopotentidine-2-NB590]

NanoBRET Fold Response ([1]; 0.1μM tracer): 1.00 | NanoBRET Fold Response ([1]; 1μM tracer): 1.25 | NanoBRET Fold Response ([2]; 0.1μM tracer): 0.49 | NanoBRET Fold Response ([2]; 1μM tracer): 0.60 | NanoBRET Fold Response ([3]; 0.1μM tracer): 0.87 | NanoBRET Fold Response ([3]; 1μM tracer): 0.95
SMILES: COc1ccc2c(n1)c(CCNC(C)=O)cn2CCNC(=O)CCc1ccc2n1[B-](F)(F)[N+]1=C(c3ccc[nH]3)C=CC1=C2 [Azamelatonin-1-NB590]
